What was measured:
[1] = tested on: succinic dehydrogenase (SDH); assay: SDH staining (mitochondrial enzyme activity) of extensor digitorum longus muscle; type: in vivo, mouse
Procedure: Staining of succinic dehydrogenase (SDH) in the extensor digitorum longus muscle of a mouse administered with farnesol for 5 weeks is performed. This staining method is a method of analyzing mitochondrial activity by measuring activity of SDH which is an enzyme involved in the electron transport chain of mitochondria. Staining degree represents a content of oxidative muscle fiber. Frozen tissue sections are reacted in 0.2 M phosphate buffer (pH 7.4) containing […] sodium succinate and nitro blue tetrazolium (NBT) at 37° C. for 60 minutes, washed with distilled water, and then sealed, followed by observation. Further, farnesol is administered to mice in the same manner as in Section 4 of Example 2, except that 22-month-old mice are used instead of 5-month-old mice and administration is performed for 4 months instead of 5 weeks, and activity of a mitochondrial enzyme according to farnesol administration is analyzed in the extensor digitorum longus muscles of old mice.

[2] = tested on: lower limb muscles (GAS, SOL, EDL, TA); assay: Observation of lower limb muscles of mice administered with farnesol; type: in vivo, mouse; details: mice fed with farnesol for 5 weeks
Procedure: 5 month-old C57BL/6 male mice (weighing 22 g) are maintained at a temperature of 22±2° C., humidity of 55±5%, and a light-dark cycle of 12:12 hours. An animal feed containing 0.5% w/w farnesol was supplied by Jung-Ang Lab Animal Inc. A control group is fed with a feed equivalent to a general feed for experimental animals, excluding that no 0.5% w/w farnesol is contained. They are allowed free access to drinking water. Skeletal muscles were separated from the mice and control mouse fed with farnesol for 5 weeks, and subjected to immunoblot analysis. In all the following Examples, administration or feeding of mouse is performed as above, unless otherwise mentioned. […] In this specification, assuming that human life expectancy of 100 years corresponds to mouse life expectancy of 3 years, human life expectancy is estimated from the relationship. […] Herein, GAS indicates gastrocnemius muscle, SOL indicates soleus muscle, EDL indicates extensor digitorum longus muscle, and TA indicates tibialis anterior muscle. Gastrocnemius muscle exists as a white muscle because glycolytic muscle fibers are mainly distributed therein.

PARIS = assay: Immunoprecipitation analysis for PARIS in tibialis anterior muscles; type: in vivo, mouse; details: 4-month-old mice fed with farnesol 0, 1, 2, 3 days
Procedure: To examine whether farnesol increases PARIS farnesylation in muscles, immunoprecipitation of PARIS is performed in tibialis anterior muscles of 4-month-old mice (female, 22 g) fed with farnesol for a predetermined period, that is, 0, 1, 2, and 3 days. The tibialis anterior muscles which are removed from the mice fed with farnesol are mixed with a lysis buffer (10 mM Tris-HCl, pH 7.4, 150 mM NaCl, 5 mM EDTA, 1% triton X-100, 10 mM Na-β-glycerophosphate, and Complete Protease Inhibitor Mixture (Roche)), and homogenized using a Diax 900 tissue homogenizer. The tissues are left under refrigeration for 30 minutes, and centrifuged at 52,000 rpm for 20 minutes. A supernatant is used for immunoprecipitation.

AMPK and p38 MAPK = assay: Immunoblot of pAMPK and pp38 in farnesol-treated C2C12 myoblasts; type: cell-based; details: 0.1 μM farnesol, 48 hours
Procedure: The C2C12 myoblasts are cultured in DMEM containing 2% horse serum and 0.1 μM farnesol dissolved in DMSO for 48 hours. A control group is cultured in the same manner as above, except that only DMSO is added. Other culture conditions and immunoblot procedure are the same as those described in Section 1 of Example 2. PGC-1α, pAMPK, pp38 and basal forms thereof are subjected to immunoblotting.

[3] = tested on: AAV-PARIS WT or C631S-introduced tibialis anterior muscles; assay: SDH staining of muscles introduced with AAV-PARIS WT or AAV-PARIS C631S; type: in vivo, mouse; details: 5-month-old mice, farnesol diet 1 week, 4 days after virus
Procedure: 5-month-old C57BL/6 male mice (body weight of 22 g) are fed with a control diet or a farnesol-containing diet for 1 week, and then AAV-GFP, AAV-PARIS WT or AAV-PARIS C631S virus is injected into tibialis anterior muscles. Feeding conditions, not mentioned, are the same as in Section 2 of Example 2. After 4 days, the muscles are collected and histological staining is performed to analyze mitochondrial enzyme activity. The staining is performed by SDH enzyme activity staining. Viral transduction efficiency is evaluated by GFP fluorescence.

[4] = tested on: extensor digitorum longus muscle fibers; assay: Immunohistochemistry of muscle fiber type (MHC2a/MHC2b) in extensor digitorum longus muscle; type: in vivo, mouse
Text: To examine distribution of 2a type muscle fiber and 2b type muscle fiber, extensor digitorum longus muscles of mice administered with farnesol for 5 weeks are subjected to immunohistochemistry. 2a type muscle fiber is an oxidative muscle fiber type, and there are two types: aerobic, that is, oxygen-dependent energy source and anaerobic, that is, oxygen-independent energy source. 2b type muscle fiber is a glycolytic muscle fiber type, and includes only anaerobic energy source. Frozen sections stored in a deep freezer of -80° C. are washed with 1×PBS twice, and fixed with 4% paraformaldehyde at room temperature for 15 minutes, and then washed with 1×PBS twice. The tissue and a permeabilization buffer (0.2% Triton-X/PBS) are reacted at room temperature for 30 minutes, and washed with 1×PBS twice. The tissue and Proteinase K are reacted at 37° C. for 10 minutes for antigen retrieval, and washed with 1×PBS twice, and blocked in a blocking buffer (0.1% gelatin, 5% goat serum, 0.5% BSA, and 0.1% Triton-X) for 1 hr. As a primary antibody, a rabbit antibody specifically binding to MHC2a or MHC2b is diluted with the blocking buffer at a ratio of 1:500 and reacted at 4° C. for 12 hrs, followed by washing with 1×PBS twice. A secondary antibody, anti-rabbit antibody is reacted, followed by washing 1×PBS twice. After sealing, a fluorescence microscope (Nikon, body: Ti-u, camera: DS-RI1, program: NIS-elements BR 3.1) was used for analysis. Farnesol is administered to mice in the same manner as in Section 3 of Example 2, except that 22-month-old mice are used instead of 5-month-old mice and administration is performed for 4 months instead of 5 weeks, and changes in the skeletal muscle type are examined.

[5] = Energy expenditure of old mice (Oxylet calorimetry); type: in vivo, mouse; details: farnesol diet 4 months
Procedure: 22-month-old female mice (weighing 30 g) are fed with a control diet and a farnesol diet for 4 months. That is, 22-month-old mice are fed for 4 months, and then 26-month-old mice are analyzed. […] The same mouse is used as a control group, except that it is fed with a diet containing no farnesol. Muscle strength, energy expenditure, glucose tolerance, and fat accumulation of each mouse are evaluated. […] To measure energy expenditures of old mice administered with farnesol, mice are bred in a measurement apparatus, Oxylet system (calorimetry apparatus, Panlab Harvard apparatus) for 2 days. A METABOLISM software connected with metabolic measurement modules is used for analysis of energy expenditure.

[6] = 22-month-old mice, farnesol 4 months
[7] = 5-month-old mice, farnesol orally 5 weeks

## CC(C)=CCC/C(C)=C/CC/C(C)=C/CO [farnesol, (2E,6E)-3,7,11-trimethyldodeca-2,6,10-trien-1-ol]
[1]; 5-month-old mice, farnesol 5 weeks
  percentage of the area stained dark (SDH activity) in EDL: remarkably increased
[1]; [6]
  percentage of the area stained dark (SDH activity) in EDL: remarkably increased
[2]
  muscle fibers of gastrocnemius, soleus, extensor digitorum longus and tibialis anterior muscle (appearance): converted to red muscles having a high percentage of oxidative muscle fibers
PARIS
  farnesylated PARIS level in tibialis anterior muscle: further increases
AMPK and p38 MAPK
  pAMPK level: does not affect
  pp38 level: does not affect
[3]
  reduction in mitochondrial enzyme activity (SDH), AAV-PARIS WT-introduced muscles: inhibits a reduction
[4]; [7]
  diameter of oxidative 2a type muscle fiber in EDL: increased
  number of glycolytic 2b type muscle fiber in EDL: decreased
  number of oxidative 2a type muscle fiber in EDL: increased
[4]; [6]
  number of oxidative 2a type muscle fiber in EDL compared to control: about 1.4 times
[5]
  energy expenditure: significantly increased

From patent US10780061B2, “Composition comprising farnesol and use thereof” (Daegu Gyongbuk Institute of Science and Technology, priority 2014, dated 2020)
